Results from US20120059036A1, “METHOD FOR REDUCING THROMBOCYTOPENIA AND THROMBOCYTOPENIA-ASSOCIATED MORTALITY” (priority 2008, published 2012).

Tested on: patients experiencing ST-segment elevation myocardial infarction (STEMI)
Assay: […] Phase III study: clinical outcomes (death, reinfarction, revascularization, stent thrombosis) at 30 days and 8 months
Type: in vivo, human
Procedure: The inclusion criteria were (1) chest pain for longer than 30 minutes with an electrocardiographic ST-segment elevation of 1 mm or greater in two or more contiguous electrocardiogram leads, or with a new left bundle-branch block, and (2) admission either within 12 hours of symptom onset or between 12 and 24 hours after onset with evidence of continuing ischemia. The exclusion criteria included administration of fibrinolytics in the previous 30 days, major surgery within 15 days, and active bleeding or previous stroke in the last six months. Immediately after eligibility criteria were met and before the visualization of coronary arteries through angiography, the treating physician at each investigational site performed open-label assignments of study treatments via sealed envelopes.
This type of regimen is described in U.S. Pat. No. 6,770,660. Abciximab was administered in a 0.25 mg/kg bolus, followed by 0.125 μg/kg/min continuous infusion for 12 hours. The administration of both drugs began at first medical contact, before arterial sheath insertion. Heparin was given at 40 to 70 U/kg, targeting an activated clotting time of at least 200 seconds. Patients received aspirin (160-325 mg orally or 250 mg intravenously, followed by 80-125 mg/d orally indefinitely) and clopidogrel (300 mg orally and then 75 mg/d for at least three months).
A 12-lead electrocardiogram was recorded before the procedure and 90 minutes after the last balloon inflation in the infarct-related artery. Follow-up visits were scheduled at one, four, and eight months.
The data for all patients with primary end-point events were reviewed by an independent adjudication committee whose members were blinded to treatment assignments. Events adjudication was performed separately by two members, and in case of disagreement, the opinion of the third member was obtained and the final decision taken by consensus. The committee was also responsible for the adjudication of all clinical events according to the Academic Research Consortium.^18
Discrete data were summarized as frequencies, and comparisons were made with the likelihood-ratio χ^2 test or Fisher exact test. Continuous data were expressed as mean (SD) or median and interquartile range according to their distribution; comparisons were made with a one-way analysis of variance or the Kruskal-Wallis test.

[1] = At 8 mo, number of patients with event
[2] = At 30 d, number of patients with event

**Q.** Which results are given for `CCCCS(=O)(=O)N[C@@H](Cc1ccc(OCCCCC2CCNCC2)cc1)C(=O)O.Cl.O` [Tirofiban Plus Uncoated Stent]?
**A.** Clinically driven target-vessel revascularization (At 8 mo, Kaplan-Meier estimate): (9.1) %; Composite of death, reinfarction, or target-vessel revascularization (At 8 mo, Kaplan-Meier estimate): (12.9) %; Death (At 8 mo, Kaplan-Meier estimate): (3.8) %; Death or reinfarction (At 8 mo, Kaplan-Meier estimate): (6.5) %; Definite or probable or possible stent thrombosis (At 8 mo, Kaplan-Meier estimate): (4.3) %; Definite or probable stent thrombosis (At 8 mo, Kaplan-Meier estimate): (3.2) %; Definite stent thrombosis (At 8 mo, Kaplan-Meier estimate): (2.2) %; Possible stent thrombosis (At 8 mo, Kaplan-Meier estimate): (1.6) %; Reinfarction (At 8 mo, Kaplan-Meier estimate): (4.3) %; Clinically driven target-vessel revascularization [1]: 17 No.; Composite of death, reinfarction, or target-vessel revascularization [1]: 24 No.; Death [1]: 7 No.; Death or reinfarction [1]: 12 No.; Definite or probable or possible stent thrombosis [1]: 8 No.; Definite or probable stent thrombosis [1]: 6 No.; Definite stent thrombosis [1]: 4 No.; Possible stent thrombosis [1]: 3 No.; Reinfarction [1]: 8 No.; Clinically driven target-vessel revascularization (At 30 d, Kaplan-Meier estimate): (1.6) %; Composite of death, reinfarction, or target-vessel revascularization (At 30 d, Kaplan-Meier estimate): (3.8) %; Death (At 30 d, Kaplan-Meier estimate): (1.1) %; Death or reinfarction (At 30 d, Kaplan-Meier estimate): (3.8) %; Definite or probable stent thrombosis (At 30 d, Kaplan-Meier estimate): (2.7) %; Definite stent thrombosis (At 30 d, Kaplan-Meier estimate): (1.6) %; Probable stent thrombosis (At 30 d, Kaplan-Meier estimate): (1.1) %; Reinfarction (At 30 d, Kaplan-Meier estimate): (2.7) %; Clinically driven target-vessel revascularization [2]: 3 No.; Composite of death, reinfarction, or target-vessel revascularization [2]: 7 No.; Death [2]: 2 No.; Death or reinfarction [2]: 7 No.; Definite or probable stent thrombosis [2]: 5 No.; Definite stent thrombosis [2]: 3 No.; Probable stent thrombosis [2]: 2 No.; Reinfarction [2]: 5 No.
